Test results published in ChEMBL document CHEMBL4507280 (2021).

How the values were obtained:
[1] = system: Tyrosine-protein kinase ABL1 (Homo sapiens), P00519 [F317L]; settings: Compound concentration 1000.0 nM
[2] = biological target: Tyrosine-protein kinase ABL1 (Homo sapiens) (UniProt P00519); settings: Compound concentration 1000.0 nM
[3] = biological target: Atypical kinase COQ8B, mitochondrial (Homo sapiens) (UniProt Q96D53); settings: Compound concentration 1000.0 nM
[4] = biological target: ALK tyrosine kinase receptor (Homo sapiens) (UniProt Q9UM73); settings: Compound concentration 1000.0 nM
[5] = biological target: Cytoplasmic tyrosine-protein kinase BMX (Homo sapiens) (UniProt P51813); settings: Compound concentration 1000.0 nM
[6] = biological target: Calcium/calmodulin-dependent protein kinase type IV (Homo sapiens) (UniProt Q16566); settings: Compound concentration 1000.0 nM
[7] = biological target: Cyclin-dependent kinase-like 3 (Homo sapiens) (UniProt Q8IVW4); settings: Compound concentration 1000.0 nM
[8] = biological target: Casein kinase I isoform alpha (Homo sapiens) (UniProt P48729); settings: Compound concentration 1000.0 nM
[9] = system: Epidermal growth factor receptor (Homo sapiens), P00533 [UNDEFINED MUTATION]; settings: Compound concentration 1000.0 nM
[10] = biological target: Receptor-type tyrosine-protein kinase FLT3 (Homo sapiens) (UniProt P36888); settings: Compound concentration 1000.0 nM
[11] = biological target: Mitogen-activated protein kinase kinase kinase kinase 1 (Homo sapiens) (UniProt Q92918); settings: Compound concentration 1000.0 nM
[12] = biological target: Tyrosine-protein kinase JAK3 (Homo sapiens) (UniProt P52333); settings: Compound concentration 1000.0 nM
[13] = biological target: Mitogen-activated protein kinase 10 (Homo sapiens) (UniProt P53779); settings: Compound concentration 1000.0 nM
[14] = biological target: Mitogen-activated protein kinase kinase kinase kinase 4 (Homo sapiens) (UniProt O95819); settings: Compound concentration 1000.0 nM
[15] = biological target: MAP kinase-interacting serine/threonine-protein kinase 2 (Homo sapiens) (UniProt Q9HBH9); settings: Compound concentration 1000.0 nM
[16] = biological target: Mitogen-activated protein kinase kinase kinase 11 (Homo sapiens) (UniProt Q16584); settings: Compound concentration 1000.0 nM
[17] = biological target: Serine/threonine-protein kinase 4 (Homo sapiens) (UniProt Q13043); settings: Compound concentration 1000.0 nM
[18] = biological target: Macrophage-stimulating protein receptor (Homo sapiens) (UniProt Q04912); settings: Compound concentration 1000.0 nM
[19] = biological target: Myosin light chain kinase 2, skeletal/cardiac muscle (Homo sapiens) (UniProt Q9H1R3); settings: Compound concentration 1000.0 nM
[20] = biological target: Myosin-IIIa (Homo sapiens) (UniProt Q8NEV4); settings: Compound concentration 1000.0 nM
[21] = biological target: Mitogen-activated protein kinase 14 (Homo sapiens) (UniProt Q16539); settings: Compound concentration 1000.0 nM
[22] = biological target: Platelet-derived growth factor receptor alpha (Homo sapiens) (UniProt P16234); settings: Compound concentration 1000.0 nM
[23] = biological target: Serine/threonine-protein kinase N2 (Homo sapiens) (UniProt Q16513); settings: Compound concentration 1000.0 nM
[24] = biological target: Serine/threonine-protein kinase PknB (Mycobacterium tuberculosis) (UniProt P9WI81); settings: Compound concentration 1000.0 nM
[25] = biological target: Serine/threonine-protein kinase PLK1 (Homo sapiens) (UniProt P53350); settings: Compound concentration 1000.0 nM
[26] = biological target: Protein kinase C delta type (Homo sapiens) (UniProt Q05655); settings: Compound concentration 1000.0 nM
[27] = biological target: Serine/threonine-protein kinase D2 (Homo sapiens) (UniProt Q9BZL6); settings: Compound concentration 1000.0 nM
[28] = biological target: Serine/threonine-protein kinase D3 (Homo sapiens) (UniProt O94806); settings: Compound concentration 1000.0 nM
[29] = system: Proto-oncogene tyrosine-protein kinase receptor Ret (Homo sapiens), P07949 [V804M]; settings: Compound concentration 1000.0 nM
[30] = biological target: Receptor-interacting serine/threonine-protein kinase 4 (Homo sapiens) (UniProt P57078); settings: Compound concentration 1000.0 nM
[31] = biological target: Rho-associated protein kinase 2 (Homo sapiens) (UniProt O75116); settings: Compound concentration 1000.0 nM
[32] = biological target: Ribosomal protein S6 kinase alpha-6 (Homo sapiens) (UniProt Q9UK32); settings: Compound concentration 1000.0 nM
[33] = biological target: Serine/threonine-protein kinase SIK1 (Homo sapiens) (UniProt P57059); settings: Compound concentration 1000.0 nM
[34] = biological target: Proto-oncogene tyrosine-protein kinase Src (Homo sapiens) (UniProt P12931); settings: Compound concentration 1000.0 nM
[35] = biological target: Serine/threonine-protein kinase 35 (Homo sapiens) (UniProt Q8TDR2); settings: Compound concentration 1000.0 nM
[36] = biological target: Mitogen-activated protein kinase kinase kinase 7 (Homo sapiens) (UniProt O43318); settings: Compound concentration 1000.0 nM
[37] = biological target: Dual specificity protein kinase TTK (Homo sapiens) (UniProt P33981); settings: Compound concentration 1000.0 nM
[38] = biological target: T1, Muscarinic acetylcholine receptor M2 (Homo sapiens) (UniProt P08172); settings: Compound concentration 10.0 uM
T1 sequence (whole entry): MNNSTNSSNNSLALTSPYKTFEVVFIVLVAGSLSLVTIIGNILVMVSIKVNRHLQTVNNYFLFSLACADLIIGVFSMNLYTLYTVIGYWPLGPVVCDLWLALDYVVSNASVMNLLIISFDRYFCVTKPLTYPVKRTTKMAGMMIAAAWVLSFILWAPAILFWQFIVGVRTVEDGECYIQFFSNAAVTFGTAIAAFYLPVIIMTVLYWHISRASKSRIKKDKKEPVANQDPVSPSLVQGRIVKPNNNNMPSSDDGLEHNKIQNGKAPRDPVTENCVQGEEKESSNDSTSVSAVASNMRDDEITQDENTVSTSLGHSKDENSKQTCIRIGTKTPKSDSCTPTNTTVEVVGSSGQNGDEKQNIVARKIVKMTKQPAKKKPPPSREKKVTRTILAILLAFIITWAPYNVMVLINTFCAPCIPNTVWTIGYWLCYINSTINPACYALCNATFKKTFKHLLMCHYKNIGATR

[39] = biological target: Muscarinic acetylcholine receptor M4 (Homo sapiens) (UniProt P08173); settings: Compound concentration 10.0 uM
Muscarinic acetylcholine receptor M4 (Homo sapiens), sequence (P08173 whole entry): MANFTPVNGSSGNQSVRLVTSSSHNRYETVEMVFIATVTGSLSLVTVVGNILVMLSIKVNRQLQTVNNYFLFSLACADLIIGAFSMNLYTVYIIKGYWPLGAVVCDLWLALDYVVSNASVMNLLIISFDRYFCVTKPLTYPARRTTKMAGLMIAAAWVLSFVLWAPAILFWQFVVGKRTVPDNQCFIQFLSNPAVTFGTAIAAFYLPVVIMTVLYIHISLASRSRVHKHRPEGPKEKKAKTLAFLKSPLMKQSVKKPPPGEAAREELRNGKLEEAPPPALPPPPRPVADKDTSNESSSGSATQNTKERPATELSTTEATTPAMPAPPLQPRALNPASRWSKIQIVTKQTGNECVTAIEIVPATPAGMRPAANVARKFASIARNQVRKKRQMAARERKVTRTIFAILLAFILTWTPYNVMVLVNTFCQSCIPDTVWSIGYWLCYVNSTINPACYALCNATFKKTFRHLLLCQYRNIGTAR

Mitogen-activated protein kinase 10 (Homo sapiens), sequence (P53779 whole entry): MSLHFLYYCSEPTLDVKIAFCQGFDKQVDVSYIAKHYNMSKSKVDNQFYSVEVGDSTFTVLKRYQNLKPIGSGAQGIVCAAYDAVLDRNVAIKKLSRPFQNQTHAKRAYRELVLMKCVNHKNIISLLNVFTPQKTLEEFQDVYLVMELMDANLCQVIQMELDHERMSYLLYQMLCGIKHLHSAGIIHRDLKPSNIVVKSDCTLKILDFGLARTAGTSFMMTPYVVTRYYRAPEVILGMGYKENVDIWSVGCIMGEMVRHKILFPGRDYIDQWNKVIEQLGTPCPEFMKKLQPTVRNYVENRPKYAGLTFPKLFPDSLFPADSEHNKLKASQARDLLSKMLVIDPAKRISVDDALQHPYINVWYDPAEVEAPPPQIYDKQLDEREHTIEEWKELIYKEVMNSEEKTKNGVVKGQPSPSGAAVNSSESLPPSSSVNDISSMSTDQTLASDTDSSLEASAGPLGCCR
Myosin-IIIa (Homo sapiens), sequence (Q8NEV4 whole entry): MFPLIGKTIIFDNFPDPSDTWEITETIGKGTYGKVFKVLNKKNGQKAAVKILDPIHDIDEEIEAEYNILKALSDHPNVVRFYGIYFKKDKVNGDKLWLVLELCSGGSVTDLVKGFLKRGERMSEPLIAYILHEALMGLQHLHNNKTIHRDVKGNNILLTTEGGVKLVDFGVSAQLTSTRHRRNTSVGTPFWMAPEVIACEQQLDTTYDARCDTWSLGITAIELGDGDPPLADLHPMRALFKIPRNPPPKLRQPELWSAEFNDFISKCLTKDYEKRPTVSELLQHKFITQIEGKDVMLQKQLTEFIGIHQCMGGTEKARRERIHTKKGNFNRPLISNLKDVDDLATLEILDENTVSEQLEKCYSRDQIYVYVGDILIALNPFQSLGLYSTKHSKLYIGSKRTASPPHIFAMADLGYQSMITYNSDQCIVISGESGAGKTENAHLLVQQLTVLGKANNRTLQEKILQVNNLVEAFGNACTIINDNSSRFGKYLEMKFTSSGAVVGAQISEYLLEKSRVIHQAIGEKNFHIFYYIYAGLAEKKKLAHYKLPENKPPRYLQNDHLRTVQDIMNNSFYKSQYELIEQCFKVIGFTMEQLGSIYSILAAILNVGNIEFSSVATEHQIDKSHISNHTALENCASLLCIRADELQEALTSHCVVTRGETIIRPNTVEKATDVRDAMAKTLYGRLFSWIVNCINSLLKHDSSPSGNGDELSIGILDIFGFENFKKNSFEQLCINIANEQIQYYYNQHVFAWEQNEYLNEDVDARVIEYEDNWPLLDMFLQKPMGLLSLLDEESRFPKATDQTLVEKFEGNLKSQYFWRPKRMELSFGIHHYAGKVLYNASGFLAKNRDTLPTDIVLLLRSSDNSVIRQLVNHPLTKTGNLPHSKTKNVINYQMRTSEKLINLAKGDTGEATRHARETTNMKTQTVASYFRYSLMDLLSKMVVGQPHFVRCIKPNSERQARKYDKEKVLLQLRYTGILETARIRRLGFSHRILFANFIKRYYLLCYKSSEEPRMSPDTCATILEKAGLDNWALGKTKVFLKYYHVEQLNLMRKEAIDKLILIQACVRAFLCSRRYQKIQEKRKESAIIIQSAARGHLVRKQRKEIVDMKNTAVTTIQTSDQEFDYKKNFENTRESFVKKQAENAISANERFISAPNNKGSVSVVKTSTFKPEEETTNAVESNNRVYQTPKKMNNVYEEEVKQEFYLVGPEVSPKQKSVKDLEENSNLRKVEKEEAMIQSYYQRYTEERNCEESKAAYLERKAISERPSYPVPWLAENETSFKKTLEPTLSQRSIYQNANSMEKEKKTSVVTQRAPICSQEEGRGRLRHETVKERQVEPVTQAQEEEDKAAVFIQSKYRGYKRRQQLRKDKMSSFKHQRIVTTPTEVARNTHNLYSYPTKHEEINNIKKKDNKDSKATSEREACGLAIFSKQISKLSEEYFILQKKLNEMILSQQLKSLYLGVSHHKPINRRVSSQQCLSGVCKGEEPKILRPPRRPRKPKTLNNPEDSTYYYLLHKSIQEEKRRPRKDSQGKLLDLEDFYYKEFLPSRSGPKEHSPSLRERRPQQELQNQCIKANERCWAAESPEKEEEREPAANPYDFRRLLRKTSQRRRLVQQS
Mitogen-activated protein kinase 14 (Homo sapiens), sequence (Q16539 whole entry): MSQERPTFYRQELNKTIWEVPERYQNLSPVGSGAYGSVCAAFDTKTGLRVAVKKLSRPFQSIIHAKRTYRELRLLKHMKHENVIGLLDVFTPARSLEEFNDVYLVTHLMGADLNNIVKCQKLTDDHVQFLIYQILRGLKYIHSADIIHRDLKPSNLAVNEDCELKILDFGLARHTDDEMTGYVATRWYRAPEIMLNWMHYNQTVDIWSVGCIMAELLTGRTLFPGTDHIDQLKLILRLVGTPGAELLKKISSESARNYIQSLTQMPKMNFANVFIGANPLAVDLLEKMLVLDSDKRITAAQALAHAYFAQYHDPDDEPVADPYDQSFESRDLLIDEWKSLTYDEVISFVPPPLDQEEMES
Tyrosine-protein kinase ABL1 (Homo sapiens), sequence (P00519 whole entry): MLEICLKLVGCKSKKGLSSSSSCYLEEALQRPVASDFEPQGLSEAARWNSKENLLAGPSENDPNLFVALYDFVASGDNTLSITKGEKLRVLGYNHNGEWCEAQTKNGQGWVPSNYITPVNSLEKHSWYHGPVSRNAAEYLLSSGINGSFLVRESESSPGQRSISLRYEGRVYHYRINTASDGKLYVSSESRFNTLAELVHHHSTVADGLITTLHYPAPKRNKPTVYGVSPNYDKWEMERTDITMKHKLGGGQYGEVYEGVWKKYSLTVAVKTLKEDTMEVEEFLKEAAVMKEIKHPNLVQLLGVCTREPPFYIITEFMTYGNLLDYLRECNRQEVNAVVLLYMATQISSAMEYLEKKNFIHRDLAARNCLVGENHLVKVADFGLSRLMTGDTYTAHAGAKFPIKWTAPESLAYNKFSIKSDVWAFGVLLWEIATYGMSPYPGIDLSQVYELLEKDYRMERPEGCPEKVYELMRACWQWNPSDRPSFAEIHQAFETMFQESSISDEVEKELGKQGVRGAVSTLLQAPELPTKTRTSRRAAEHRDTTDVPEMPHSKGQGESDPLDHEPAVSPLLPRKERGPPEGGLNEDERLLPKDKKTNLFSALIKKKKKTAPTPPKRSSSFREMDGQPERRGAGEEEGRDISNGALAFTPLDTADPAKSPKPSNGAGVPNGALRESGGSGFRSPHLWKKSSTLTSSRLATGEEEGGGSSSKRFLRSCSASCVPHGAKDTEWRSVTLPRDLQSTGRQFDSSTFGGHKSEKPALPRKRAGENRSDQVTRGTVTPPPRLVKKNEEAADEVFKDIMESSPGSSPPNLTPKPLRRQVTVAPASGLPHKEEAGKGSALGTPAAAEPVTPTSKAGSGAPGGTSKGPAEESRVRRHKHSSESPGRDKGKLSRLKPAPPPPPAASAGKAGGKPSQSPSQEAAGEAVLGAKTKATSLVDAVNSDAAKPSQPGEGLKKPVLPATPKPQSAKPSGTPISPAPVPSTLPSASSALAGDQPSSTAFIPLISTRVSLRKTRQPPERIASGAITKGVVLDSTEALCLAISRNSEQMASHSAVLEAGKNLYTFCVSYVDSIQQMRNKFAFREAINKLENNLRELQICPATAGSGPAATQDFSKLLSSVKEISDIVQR
Protein kinase C delta type (Homo sapiens), sequence (Q05655 whole entry, looked up): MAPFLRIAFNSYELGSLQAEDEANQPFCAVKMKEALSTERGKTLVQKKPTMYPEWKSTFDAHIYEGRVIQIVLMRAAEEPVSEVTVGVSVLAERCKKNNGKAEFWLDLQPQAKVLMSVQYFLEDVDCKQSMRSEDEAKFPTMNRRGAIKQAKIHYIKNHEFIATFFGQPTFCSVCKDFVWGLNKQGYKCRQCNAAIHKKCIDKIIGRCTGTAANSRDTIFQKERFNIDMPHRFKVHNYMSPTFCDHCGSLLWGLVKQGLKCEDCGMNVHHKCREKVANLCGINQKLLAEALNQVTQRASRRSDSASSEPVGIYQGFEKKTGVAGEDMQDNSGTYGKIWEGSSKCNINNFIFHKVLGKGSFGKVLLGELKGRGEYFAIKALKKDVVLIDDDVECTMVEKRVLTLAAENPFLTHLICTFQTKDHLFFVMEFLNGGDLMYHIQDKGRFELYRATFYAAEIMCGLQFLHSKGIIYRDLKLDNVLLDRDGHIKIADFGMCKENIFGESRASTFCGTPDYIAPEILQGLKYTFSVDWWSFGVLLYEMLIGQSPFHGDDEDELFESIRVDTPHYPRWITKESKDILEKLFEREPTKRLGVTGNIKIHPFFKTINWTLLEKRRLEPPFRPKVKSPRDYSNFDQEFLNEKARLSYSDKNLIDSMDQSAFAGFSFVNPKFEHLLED
Casein kinase I isoform alpha (Homo sapiens), sequence (P48729 2-337 limits assumed): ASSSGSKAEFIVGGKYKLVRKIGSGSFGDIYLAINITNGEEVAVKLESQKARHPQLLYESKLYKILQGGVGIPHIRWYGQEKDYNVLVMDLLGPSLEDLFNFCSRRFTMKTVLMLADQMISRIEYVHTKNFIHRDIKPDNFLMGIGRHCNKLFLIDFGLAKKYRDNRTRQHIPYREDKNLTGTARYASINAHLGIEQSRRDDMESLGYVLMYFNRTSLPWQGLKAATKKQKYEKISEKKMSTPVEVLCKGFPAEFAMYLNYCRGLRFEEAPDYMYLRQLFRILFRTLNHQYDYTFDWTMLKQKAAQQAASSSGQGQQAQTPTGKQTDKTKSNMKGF

CCC(=O)N[C@@H]1CC[C@H](C(=O)N(C)c2ccc(-c3nc4ccccc4o3)cc2)C1 [BI 99990]
inactive: residual activity [1] 92% | residual activity [2] 96% | residual activity [3] 94% | residual activity [4] 99% | residual activity [5] 98% | residual activity [6] 100% | residual activity [7] 79% | residual activity [8] 100% | residual activity [9] 100% | residual activity [10] 84% | residual activity [11] 100% | residual activity [12] 98% | residual activity [13] 100% | residual activity [14] 100% | residual activity [15] 100% | residual activity [16] 100% | residual activity [17] 90% | residual activity [18] 100% | residual activity [19] 79% | residual activity [20] 100% | residual activity [21] 95% | residual activity [22] 86% | residual activity [23] 100% | residual activity [24] 78% | residual activity [25] 95% | residual activity [26] 89% | residual activity [27] 100% | residual activity [28] 100% | residual activity [29] 100% | residual activity [30] 72% | residual activity [31] 100% | residual activity [32] 100% | residual activity [33] 95% | residual activity [34] 100% | residual activity [35] 100% | residual activity [36] 100% | residual activity [37] 100% | inhibition [38] 17.9% | inhibition [39] 5.19%

CCC(=O)N[C@H]1CC[C@@H](C(=O)N(C)c2ccc(-c3nc4ccccc4o3)cc2)C1 [BI 99179]
inactive: residual activity [1] 86% | residual activity [2] 72% | residual activity [3] 74% | residual activity [4] 86% | residual activity [5] 100% | residual activity [6] 88% | residual activity [7] 100% | residual activity [8] 82% | residual activity [9] 97% | residual activity [10] 85% | residual activity [11] 100% | residual activity [12] 100% | residual activity [13] 85% | residual activity [14] 91% | residual activity [15] 100% | residual activity [16] 93% | residual activity [17] 100% | residual activity [18] 87% | residual activity [19] 85% | residual activity [20] 100% | residual activity [21] 100% | residual activity [22] 85% | residual activity [23] 100% | residual activity [24] 86% | residual activity [25] 97% | residual activity [26] 100% | residual activity [27] 100% | residual activity [28] 100% | residual activity [29] 100% | residual activity [30] 50% | residual activity [31] 100% | residual activity [32] 92% | residual activity [33] 89% | residual activity [34] 93% | residual activity [35] 88% | residual activity [36] 86% | residual activity [37] 100% | inhibition [38] 4.58% | inhibition [39] 28.9%
